Measurements: ChEMBL document CHEMBL1201862, “PubChem BioAssay data set” (2004)
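The compound was tested at five concentrations on cells cultured in 96-well plates, with a 48-hour exposure period. Here, GI50 denotes the concentration required for 50% inhibition of growth.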 The source made the active and inactive calls. Cut-off read from the data, not from the text of the source: active = GI50 up to about 1.1 µM and inactive = higher.

How the values were obtained:
Test in all cases: inhibition of tumour cell growth, NCI panel, 48 h
K562 = tested on: K562
SW-620 = tested on: SW-620
OVCAR-3 = tested on: OVCAR-3
A498 = tested on: A498
SF-539 = tested on: SF-539
M19-MEL = tested on: M19-MEL
EKVX = tested on: EKVX
HOP-62 = tested on: HOP-62
HT-29 = tested on: HT-29
SF-268 = tested on: SF-268
HCT-15 = tested on: HCT-15
OVCAR-8 = tested on: OVCAR-8
HCC 2998 = tested on: HCC 2998
DMS-114 = tested on: DMS-114
U-251 = tested on: U-251
HCT-116 = tested on: HCT-116
RPMI-8226 = tested on: RPMI-8226
RXF 393 = tested on: RXF 393
Malme-3M = tested on: Malme-3M
KM-20L2 = tested on: KM-20L2
HOP-92 = tested on: HOP-92
SK-MEL-28 = tested on: SK-MEL-28
HOP-18 = tested on: HOP-18
MOLT-4 = tested on: MOLT-4
DLD-1 = tested on: DLD-1
TK-10 = tested on: TK-10
UACC-257 = tested on: UACC-257
NCI-H23 = tested on: NCI-H23
NCI-H460 = tested on: NCI-H460
CAKI-1 = tested on: CAKI-1
NCI-H226 = tested on: NCI-H226
SNB-19 = tested on: SNB-19
UO-31 = tested on: UO-31
SK-MEL-2 = tested on: SK-MEL-2
786-0 = tested on: 786-0
SF-295 = tested on: SF-295
HL-60 = tested on: HL-60
ACHN = tested on: ACHN
NCI-H522 = tested on: NCI-H522
SK-OV-3 = tested on: SK-OV-3
LOX IMVI = tested on: LOX IMVI
RXF 631 = tested on: RXF 631
KM12 = tested on: KM12
CCRF-CEM = tested on: CCRF-CEM
M14 = tested on: M14
LXFL 529 = tested on: LXFL 529
SN12C = tested on: SN12C
OVCAR-5 = tested on: OVCAR-5
SNB-78 = tested on: SNB-78
DMS-273 = tested on: DMS-273
IGROV-1 = tested on: IGROV-1
SK-MEL-5 = tested on: SK-MEL-5
SR = tested on: SR
A549 = tested on: A549
OVCAR-4 = tested on: OVCAR-4
XF498 = tested on: XF498
SNB-75 = tested on: SNB-75
UACC-62 = tested on: UACC-62
COLO 205 = tested on: COLO 205

## O=c1c(-c2ccccc2)c(O)nc2[nH]c3ccccc3n12
K562
  GI50: > 100 µM (inactive)
SW-620
  GI50: > 100 µM (inactive)
OVCAR-3
  GI50: > 100 µM (inactive)
A498
  GI50: > 100 µM (inactive)
SF-539
  GI50: > 100 µM (inactive)
M19-MEL
  GI50: > 100 µM (inactive)
EKVX
  GI50: > 100 µM (inactive)
HOP-62
  GI50: > 100 µM (inactive)
HT-29
  GI50: > 100 µM (inactive)
SF-268
  GI50: > 100 µM (inactive)
HCT-15
  GI50: > 100 µM
OVCAR-8
  GI50: > 100 µM (inactive)
HCC 2998
  GI50: > 100 µM (inactive)
DMS-114
  GI50: > 100 µM (inactive)
U-251
  GI50: > 100 µM (inactive)
HCT-116
  GI50: > 100 µM (inactive)
RPMI-8226
  GI50: > 100 µM (inactive)
RXF 393
  GI50: > 100 µM (inactive)
Malme-3M
  GI50: > 100 µM (inactive)
KM-20L2
  GI50: > 100 µM (inactive)
HOP-92
  GI50: > 100 µM (inactive)
SK-MEL-28
  GI50: > 100 µM (inactive)
HOP-18
  GI50: > 100 µM (inactive)
MOLT-4
  GI50: > 100 µM (inactive)
DLD-1
  GI50: > 100 µM (inactive)
TK-10
  GI50: > 100 µM (inactive)
UACC-257
  GI50: > 100 µM (inactive)
NCI-H23
  GI50: > 100 µM (inactive)
NCI-H460
  GI50: > 100 µM (inactive)
CAKI-1
  GI50: > 100 µM (inactive)
NCI-H226
  GI50: > 100 µM (inactive)
SNB-19
  GI50: > 100 µM (inactive)
UO-31
  GI50: > 100 µM (inactive)
SK-MEL-2
  GI50: > 100 µM (inactive)
786-0
  GI50: > 100 µM (inactive)
SF-295
  GI50: > 100 µM (inactive)
HL-60
  GI50: > 100 µM (inactive)
ACHN
  GI50: > 100 µM (inactive)
NCI-H522
  GI50: > 100 µM (inactive)
SK-OV-3
  GI50: > 100 µM (inactive)
LOX IMVI
  GI50: > 100 µM (inactive)
RXF 631
  GI50: > 100 µM (inactive)
KM12
  GI50: > 100 µM (inactive)
CCRF-CEM
  GI50: > 100 µM (inactive)
M14
  GI50: > 100 µM (inactive)
LXFL 529
  GI50: > 100 µM (inactive)
SN12C
  GI50: > 100 µM (inactive)
OVCAR-5
  GI50: > 100 µM (inactive)
SNB-78
  GI50: > 100 µM (inactive)
DMS-273
  GI50: > 100 µM (inactive)
IGROV-1
  GI50: > 100 µM (inactive)
SK-MEL-5
  GI50: > 100 µM (inactive)
SR
  GI50: 68.1 µM (inactive)
A549
  GI50: > 100 µM (inactive)
OVCAR-4
  GI50: > 100 µM (inactive)
XF498
  GI50: > 100 µM (inactive)
SNB-75
  GI50: > 100 µM (inactive)
UACC-62
  GI50: > 100 µM (inactive)
COLO 205
  GI50: > 100 µM (inactive)
